Assay [1] concerns the target human immunoproteasome β5i (Homo sapiens, UniProt P28062). Kind of assay: IC50 against chymotryptic activity of human immunoproteasome (Hu i-20S, Ac-ANW-AMC substrate). It is filed as biochemical. The conditions noted are these: 0.4 nM Hu i-20S, 15 μM Ac-ANW-AMC, 0.02% SDS, pH 7.4, 37° C. How it is done: (§1) Measurement of IC50s of Dipeptidomimetics Against Chymotryptic Activities of the Human Constitutive Proteasome and Immunoproteasome
(§2) Assays were conducted on a SpectraMax Gemini plate-reader from Molecular Devices (Sunnyvale, CA). In a black 96-well plate, 100 μL of pre-warmed assay mixture containing 0.4 nM Hu i-20S or 0.2 nM Hu c-20S, 15 μM N-acetyl-Alanine-Asparagine-Tryptophan-7-amino-4-methylcoumarin (Ac-ANW-AMC) (substrate for i-20S) or 25 μM N-succinyl-Leucine-Leucine-Valine-Tyrosine-7-amino-4-methylcoumarin (suc-LLVY-AMC) (substrate for c-20S), 0.02% SDS in buffer (50 mM HEPES, 0.5 mM EDTA, pH 7.4) was added to the wells that contained 1 μL inhibitor at 100× indicated concentrations in DMSO. The reaction progress of each well was recorded by monitoring fluorescence at 460 nm (λex=360 nm) for 120 minutes at 37° C. Velocities were derived from the initial linear range of the curves and the IC50s were obtained by plotting the percentage of inhibitor versus inhibitor concentrations (FIG. 1). […]

In assay [2] the target is human constitutive proteasome β5c (Homo sapiens, UniProt P28074). As to the kind of experiment: IC50 against chymotryptic activity of human constitutive proteasome (Hu c-20S, suc-LLVY-AMC substrate). The assay is classed as biochemical. The note with it: 0.2 nM Hu c-20S, 25 μM suc-LLVY-AMC, 0.02% SDS, pH 7.4, 37° C. How it is done: as §1, §2

SMILES strings stand for the structures.

The values below come from patent US12016896B2, “Dipeptidomimetics as inhibitors of human immunoproteasomes” (CORNELL UNIVERSITY, priority 2014, dated 2024).

One may read the IC50 as the concentration that gives 50% inhibition. High values mean weaker potency in that assay, low ones greater potency in that assay.

For `C[C@@H](CC(=O)NCc1cccc2ccccc12)NC(=O)[C@H](CC(=O)NC(C)(C)C)NC(=O)OC(C)(C)C` [PK52272, tert-butyl ((S)-4-(tert-butylamino)-1-(((S)-4-((naphthalen-1-ylmethyl)amino)-4-oxobutan-2-yl)amino)-1,4-dioxobutan-2-yl)carbamate], the results for the IC50 in assay [1] and in assay [2] were 0.152 µM and over 100 µM, respectively.
In the same order, the values of `Cc1ccc(S(=O)(=O)N[C@H](CC(=O)N[C@@H](C)C(=O)NCc2cccc3ccccc23)CC(=O)NC(C)(C)C)cc1` [PK52279, (R)—N^1-(tert-butyl)-3-(4-methylphenylsulfonamido)-N^5—((S)-1-((naphthalen-1-ylmethyl)amino)-1-oxopropan-2-yl)pentanediamide] are 0.0145 µM and 34.7 µM.
As for `Cc1ccc(S(=O)(=O)N[C@@H](CCC(=O)NC(C)(C)C)CC(=O)N[C@@H](C)C(=O)NCc2cccc3ccccc23)cc1` [PK52290, (S)—N^6-(tert-butyl)-3-(4-methylphenylsulfonamido)-N^1—((S)-1-((naphthalen-1-ylmethyl)amino)-1-oxopropan-2-yl)hexanediamide], the IC50 was determined as 1.6 µM in assay [1] and 13.9 µM in assay [2].
In the same order, the values of `Cc1ccc(S(=O)(=O)N[C@H](CC(=O)N[C@@H](C)CC(=O)NCc2cccc3ccccc23)CC(=O)NC(C)(C)C)cc1` [PK52291, (R)—N^1-(tert-butyl)-3-(4-methylphenylsulfonamido)-N^5—((S)-4-((naphthalen-1-ylmethyl)amino)-4-oxobutan-2-yl)pentanediamide] are 8.68 µM and over 100 µM.
For `C[C@@H](CC(=O)NCc1cccc2ccccc12)NC(=O)[C@H](CC(=O)NC(C)(C)C)NS(=O)(=O)C1CC1` [PK52295, (S)—N^4-(tert-butyl)-2-(cyclopropanesulfonamido)-N^1—((S)-4-((naphthalen-1-ylmethyl)amino)-4-oxobutan-2-yl)succinamide], the IC50 in assay [1] was 0.141 µM.
Turning to `Cc1ccc(S(=O)(=O)N[C@@H](CCC(=O)NC(C)(C)C)C(=O)N[C@@H](C)C(=S)NCc2cccc3ccccc23)cc1` [PK53021], the IC50 worked out at 0.671 µM in assay [1] and 13.4 µM in assay [2].
For `Cc1cc(C(=O)N[C@@H](CC(=O)NC(C)(C)C)C(=O)N[C@@H](C)CC(=O)NCc2cccc3ccccc23)no1` [PKS2249, (S)—N^4-(tert-butyl)-2-(5-methylisoxazole-3-carboxamido)-N^1—((S)-4-((naphthalen-1-ylmethyl)amino)-4-oxobutan-2-yl)succinamide], in that order: 0.18 µM and 16.1 µM.
In the same order, the values of `C[C@@H](CC(=O)NCc1cccc2ccccc12)NC(=O)[C@H](CC(=O)NC(C)(C)C)NC(=O)CCc1ccccc1` [PKS2251, (S)—N^4-(tert-butyl)-N^1—((S)-4-((naphthalen-1-ylmethyl)amino)-4-oxobutan-2-yl)-2-(3-phenylpropanamido)succinamide] are 0.045 µM and 32.2 µM.
Consider `Cc1ccc(S(=O)(=O)N[C@@H](CC(=O)NC(C)(C)C)C(=O)N[C@@H](C)CC(=O)NCc2cccc3ccccc23)cc1` [PKS2252, (S)—N^4-(tert-butyl)-2-((4-methylphenyl)sulfonamido)-N^1—((S)-4-((naphthalen-1-ylmethyl)amino)-4-oxobutan-2-yl)succinamide], for which the results for the IC50 in assay [1] and in assay [2] were 0.0064 µM and 8.81 µM, respectively.
For `C[C@@H](CC(=O)NCc1cccc2ccccc12)NC(=O)[C@H](CCC(=O)NC(C)(C)C)NC(=O)CCc1ccccc1` [PKS2253, (S)—N^5-(tert-butyl)-N^1—((S)-4-((naphthalen-1-ylmethyl)amino)-4-oxobutan-2-yl)-2-(3-phenylpropanamido)pentanediamide], in that order: 0.31 µM and 17.8 µM.
In the case of `C[C@@H](CC(=O)NCc1cccc2ccccc12)NC(=O)[C@H](CC(=O)NC(C)(C)C)NS(=O)(=O)c1ccccc1` [PKS2260, (S)—N^4-(tert-butyl)-N^1—((S)-4-((naphthalen-1-ylmethyl)amino)-4-oxobutan-2-yl)-2-(phenylsulfonamido)succinamide], the IC50 in assay [1] turned out to be 0.0112 µM; in assay [2] it was 16.6 µM.
`C[C@H](NC(=O)C[C@H](CC(=O)NC(C)(C)C)NC(=O)CCc1ccccc1)C(=O)NCc1cccc2ccccc12` [PKS2278, (R)—N^1-(tert-butyl)-N^5—((S)-1-((naphthalen-1-ylmethyl)amino)-1-oxopropan-2-yl)-3-(3-phenylpropanamido)pentanediamide]: the 50% inhibitory concentration (IC50) in assay [1] is 2.26 µM; in assay [2] it was over 100 µM.
For the molecule `C[C@@H](CC(=O)NCc1cccc2ccccc12)NC(=O)C[C@H](CC(=O)NC(C)(C)C)NC(=O)CCc1ccccc1` [PKS2292, (R)—N^1-(tert-butyl)-N^5—((S)-4-((naphthalen-1-ylmethyl)amino)-4-oxobutan-2-yl)-3-(3-phenylpropanamido)pentanediamide], the IC50 in assay [1] and in assay [2] was over 100 µM in each case.
As for `C[C@H](NC(=O)[C@H](CCC(=O)NC(C)(C)C)NC(=O)CCc1ccccc1)C(=S)NCc1cccc2ccccc12` [PKS3020], the IC50 was determined as 0.799 µM in assay [1] and 7 µM in assay [2].
In the same order, the values of `C[C@@H](CC(=O)NCc1cccc2ccccc12)NC(=O)[C@H](CC(=O)NC(C)(C)C)NC(=O)C(=O)c1c[nH]c2ccccc12` [PKS3054] are 0.0048 µM and 0.234 µM.
On to `C[C@H](NC(=O)C[C@H](CC(=O)NC(C)(C)C)NC(=O)OC(C)(C)C)C(=O)Nc1ccccc1` [PKS3065], for which the IC50 in assay [1] and in assay [2] was over 100 µM in each case.
Regarding `C[C@@H](CC(=O)Nc1cccc2ccccc12)NC(=O)[C@H](CC(=O)NC(C)(C)C)NC(=O)CCc1ccccc1` [PKS3081], the IC50 in assay [1] was 13.7 µM; in assay [2] it was over 100 µM.
For `CC(C)(C)NC(=O)C[C@H](NC(=O)CCc1ccccc1)C(=O)NCCC(=O)NCc1cccc2ccccc12` [PKS21220], in that order: 0.655 µM and 51.4 µM.
